One data set has as its system Hep-2 cells. As to the kind of experiment: Cell toxicity: crystal violet staining and microscopic examination of monolayers. The data set is classed as cell-based. The settings on record: Hep-2 monolayers of the assay plates, crystal violet stain, indications of cell toxicity; compounds tested 50 μM-0.78 μM. The procedure: (§1) All 96 wells of a microtitre plate were seeded at a density of 4×10^3 Hep-2 cells/well in 100 μl/well of Growth Medium (GM) consisting of Dulbecco's MEM (DMEM) with Glutamax-1, Sodium Pyruvate, 1000 mg/l glucose and pyridoxine (Invitrogen, catalogue number 21885-025) and supplemented with 10% FBS. (See Plate 1).
(§2) Six compounds were tested on each assay plate as illustrated below. (See Plate 3). Compounds were tested in duplicate wells across a 7-point dilution series (from 50 μM-0.78 μM): in the presence of virus.
The wells were emptied, washed in tap water and the monolayers stained with 50 μl/well of 2% crystal violet in 20% methanol/water for at least 1 hour. The wells were then washed and air-dried and the monolayers examined under the microscope for indications of cell toxicity.

Another data set has as its system RSV (RSS strain). As to the kind of experiment: RSV ELISA antigen reduction assay in Hep-2 cells. The data set is classed as cell-based, Respiratory Syncytial Virus. The conditions noted are these: RSV-infected Hep-2 cells, 3 day assay, ELISA OD 490 nm, 7-point dilution 50 μM-0.78 μM. The procedure: This was quantified by optical density (OD) measurement.
This assay was set up using all 96 wells of flat-bottomed 96-well plates. The outer wells were not subjected to any greater amount of evaporation than the inner wells during the 3 day assay period. (i.e. No “edge effect” seen).
Plates were set up one day before addition of virus and compounds. The assay then ran for 3 days with ELISA development taking place on the 4th day.
as §1
A frozen vial of RSV (RSS strain provided by Virogen Ltd) stock solution was removed from the −80 freezer or liquid nitrogen store and diluted to a known Multiplicity of Infection (m.o.i) in Growth Medium.
The m.o.i. was calculated by prior titration of the virus stock (by the ELISA assay method) as the virus input required to achieve a window of at least 0.8 OD units between infected and uninfected control wells.
50 μl of diluted virus was added to infected, “virus+”, wells by multichannel pipette; 50 μl of Growth Medium was added to uninfected, cell control wells (CC) by multichannel pipette. (See Plate 2)
Plates were incubated at 37° C. for 1 hr to allow virus adsorption.
Compounds were made up at 4× strength in GM containing 2% DMSO (a final DMSO concentration in the assay of 0.5%).
as §2
Virus infected, untreated wells served as the virus control (VC); Uninfected, untreated wells serve as the cell control (CC). The difference in absorbance between CC and VC wells constitutes the assay window.
200 μl of GM containing 2% DMSO was added to all wells except the ‘50 μM’ or first column, to which 392 μl of GM was added. 8 μl of each test compound was cherry-picked from a thawed Arrow screening plate and transferred to the appropriate well in the ‘50 μM’ column. Since the compound stock was at 10 mM in 100% DMSO, this will maintain the DMSO level at 2% at the top compound concentration.
Using a multichannel pipette, 200 μl was transferred from the 50 μM column to the 25 μM column, then to the 12.5 μM column and so on across the dilution plate creating a serial doubling dilution. Compounds were mixed upon transfer and tips changed between transfers, ensuring also that no compound was transferred to the last column of compound-free wells (0 μM).
The dilution plate was turned lengthways and 50 μl of compound easily transferred by multichannel pipette from the dilution plate to the assay plate, column by column. There was therefore an excess of 100 μl remaining in the dilution plate.
Plates were incubated at 37° C., 5% CO2 for 3 days.
Media was tapped out from wells directly into Virkon (1% solution in water) and plates were washed by immersing in a plastic box containing PBS. 50 μl/well of 75%/25% vol/vol acetone/methanol fixative was added by multichannel pipette and left for 3 mins.
Some 200 μl of blocking solution (2% Marvel in PBS containing 0.05% Tween) was added per well by multichannel pipette. Plates were incubated at 37° C. in a shaking incubator for 60 mins.
RSV mouse monoclonal antibody NCL-RSV3 (Novocastra) was diluted 1/400 in PBS/2% Marvel/0.05% Tween and 50 μl was added per well. Plates were incubated at 37° C. in a shaking incubator for 90 mins.
DAKo rabbit anti-mouse HRP conjugate (DAKO catalogue number P0260) was diluted 1/1000 in PBS/2% Marvel/0.05% Tween and 50 μl was added per well. Plates were incubated at 37° C. in a shaking incubator for 60 mins.
Substrate (SigmaFast OPD) was prepared in advance by dissolving 1 urea tablet in 20 mL water. […]

The mark [1] stands for this setting: human respiratory syncytial virus, 72 h.

In the case of `O=C(N[C@H]1N=C(c2ccccc2)c2ccccc2NC1=O)c1cc(F)ccc1N1CCS(=O)(=O)CC1` [Example 7, (S)-2-(1,1-Dioxo-1λ6-thiomorpholin-4-yl)-5-fluoro-N-(2-oxo-5-phenyl-2,3-dihydro-1H-benzo[e][1,4]diazepin-3-yl)-benzamide], the TD50 entry with Hep-2 cells is recorded as “Tr50”. Besides, the IC50 in the data set with RSV (RSS strain) (setting [1]) was below 5 µM.
With `O=C(N[C@H]1N=C(c2ccccc2)c2ccccc2NC1=O)c1ccc(F)cc1[N+]1([O-])CCS(=O)(=O)CC1` [Example 5], the TD50 result in the data set with Hep-2 cells is recorded as “Tr25”. In the data set with RSV (RSS strain), this molecule gave an IC50 below 5 µM.
As to `O=C(N[C@H]1N=C(c2ccccc2)c2ccccc2NC1=O)c1cccnc1N1CCOCC1` [Example 21, (S)-2-Morpholin-4-yl-N-(2-oxo-5-phenyl-2,3-dihydro-1H-benzo[e][1,4]diazepin-3-yl)-nicotinamide], the TD50 entry in the data set on Hep-2 cells is “Tr25”. This molecule also displayed an IC50 in the data set on RSV (RSS strain) (setting [1]) of 5 to 10 µM.
Molecule `O=C(N[C@H]1N=C(c2ccccc2)c2ccccc2NC1=O)c1ccc(CO)o1` [Example 33, (S)-5-Hydroxymethyl-furan-2-carboxylic acid (2-oxo-5-phenyl-2,3-dihydro-1H-benzo[e][1,4]diazepin-3-yl)-amide] yielded an IC50 in the data set with RSV (RSS strain) (setting [1]) of 5 to 10 µM.
`O=C(Nc1ccc(Oc2ccccc2)cc1)NC1N=C(c2ccccc2)c2ccccc2NC1=O` (racemic) [Example 52, 1-(2-Oxo-5-phenyl-2,3-dihydro-1H-benzo[e][1,4]diazepin-3-yl)-3-(4-phenoxy-phenyl)-urea] yielded a concentration for half-maximal inhibition (IC50) in the data set with RSV (RSS strain) (setting [1]) of 5 to 10 µM.
`CN1CCN(c2ccc(C(=O)NC3N=C(c4ccccc4)c4ccccc4NC3=O)cn2)CC1` (racemic) [Example 1, 6-(4-Methyl-piperazin-1-yl)-N-(2-oxo-5-phenyl-2,3-dihydro-1H-benzo[e][1,4]diazepin-3-yl)-nicotinamide] gave an IC50 with RSV (RSS strain) (setting [1]) of 5 to 10 µM.
“(S)-2-(1,1-Dioxo-1λ6-thiomorpholin-4-yl)-N-(2-oxo-5-phenyl-2,3-dihydro-1H-benzo[e][1,4]diazepin-3-yl)-nicotinamide [Example 22]” gave an IC50 in the data set on RSV (RSS strain) above 10 µM.
In turn, “(S)-5-Pyrrolidin-1-ylmethyl-furan-2-carboxylic acid (2-oxo-5-phenyl-2,3-dihydro-1H-benzo[e][1,4]diazepin-3-yl)-amide [Example 9]” yielded an IC50 with RSV (RSS strain) of 5 to 10 µM.
In the data set with RSV (RSS strain) (setting [1]), `O=C(N[C@H]1N=C(c2ccccc2)c2ccccc2NC1=O)c1occc1CN1CCOCC1` [Example 44, (S)-3-Morpholin-4-ylmethyl-furan-2-carboxylic acid (2-oxo-5-phenyl-2,3-dihydro-1H-benzo[e][1,4]diazepin-3-yl)-amide] displayed an IC50 of 5 to 10 µM.
`O=C(NC1N=C(c2ccccc2)c2ccccc2NC1=O)c1ccc(N2CCCCC2)nc1` (racemic) [Example 2, 3,4,5,6-Tetrahydro-2H-[1,2′]bipyridinyl-5′-carboxylic acid (2-oxo-5-phenyl-2,3-dihydro-1H-benzo[e][1,4]diazepin-3-yl)-amide] gave an IC50 in the data set on RSV (RSS strain) (setting [1]) of 5 to 10 µM.
For the molecule `N#Cc1ccc(C(=O)N[C@H]2N=C(c3ccccc3)c3ccccc3NC2=O)c(N2CCCC2)c1` [Example 14, (S)-4-Cyano-N-(2-oxo-5-phenyl-2,3-dihydro-1H-benzo[e][1,4]diazepin-3-yl)-2-pyrrolidin-1-yl-benzamide], the TD50 result with Hep-2 cells is listed as “Tr50”. Besides, the IC50 in the data set on RSV (RSS strain) (setting [1]) was below 5 µM.
For `O=C(N[C@H]1N=C(c2ccccc2)c2ccccc2NC1=O)c1csc(-c2cccnc2)n1` [Example 38, (S)-2-Pyridin-3-yl-thiazole-4-carboxylic acid (2-oxo-5-phenyl-2,3-dihydro-1H-benzo[e][1,4]diazepin-3-yl)-amide], the IC50 in the data set on RSV (RSS strain) (setting [1]) is below 5 µM.
Consider `O=C(N[C@H]1N=C(c2ccccc2)c2ccccc2NC1=O)c1cc(N2CCS(=O)(=O)CC2)ccc1Cl` [Example 36, (S)-2-Chloro-5-(1,1-dioxo-1λ6-thiomorpholin-4-yl)-N-(2-oxo-5-phenyl-2,3-dihydro-1H-benzo[e][1,4]diazepin-3-yl)-benzamide], for which the IC50 with RSV (RSS strain) (setting [1]) was below 5 µM.
For `N#Cc1ccc(C(=O)N[C@H]2N=C(c3ccccc3)c3ccccc3NC2=O)c(N2CCCCC2)c1` [Example 15, (S)-4-Cyano-N-(2-oxo-5-phenyl-2,3-dihydro-1H-benzo[e][1,4]diazepin-3-yl)-piperidine-1-yl-benzamide], the TD50 entry with Hep-2 cells was “Tr25”. Also, the IC50 with RSV (RSS strain) is above 10 µM.
Molecule `O=C(N[C@H]1N=C(c2ccccc2)c2ccccc2NC1=O)c1c(Cl)cccc1N1CCS(=O)(=O)CC1` [Example 26, (S)-2-Chloro-6-(1,1-dioxo-1,6-thiomorpholin-4-yl)-N-(2-oxo-5-phenyl-2,3-dihydro-1H-benzo[e][1,4]diazepin-3-yl)-benzamide] showed an IC50 with RSV (RSS strain) below 5 µM.
In the data set on RSV (RSS strain) (setting [1]), `CN(C)Cc1ccc(C(=O)N[C@H]2N=C(c3ccccc3)c3ccccc3NC2=O)o1` [Example 11, (S)-5-Dimethylaminomethyl-furan-2-carboxylic acid (2-oxo-5-phenyl-2,3-dihydro-1H-benzo[e][1,4]diazepin-3-yl)-amide] came in with an IC50 below 5 µM.

(Values after patent US20080139536A1, “Benzodiazepines for Treating or Preventing Rsv Infection” (Novartis Pharmaceuticals Corporation, priority 2004, published 2008).)
